Laboratory results reported in patent publication US7056884B2, “Reduced FK228 and use thereof” (Astellas Pharma Inc., priority 2000, dated 2006).

Tested on: Mouse histone deacetylase
Experiment: Assay of histone deacetylase activity ([3H] acetylated histone, crude histone deacetylase from FM3A cells)
Assay type: biochemical
Conditions: crude histone deacetylase fraction from FM3A cells, [3H] acetylated histone substrate, 37° C. for 10 min
Protocol: The histone deacetylase inhibitory activity of the FR135313 substance synthesized in Production Example 1 was examined.
Mouse breast cancer FM3A was supplied by Dr. Dai Ayusawa of Medical Department, Yokohama City University. This cell was subcultured in an ES medium containing 2% FBS (Flow Laboratories, hereinafter to be referred to as ES medium) at 37° C., in 5% CO2.
The [^3H] acetylated histone to be the substrate of histone deacetylase was prepared by culturing 1×10^8 cells of FM3A cell (suspended in 50 ml of ES medium) in the presence of 0.5 mCi/ml [^3H] sodium acetate and 5 mM sodium butyrate at 37° C. in 5% CO2 for 30 min, and immediately extracting histone fraction from the treated cells according to the following method. The specific radioactivity was 0.45 μCi/mg histone.
Extraction of histone protein from culture cell was conducted according to the method of Yoshida et al. (M. Yoshida et al., J. Biol. Chem. 265, 17174–17179 (1990)). […]
4 μl of [^3H] acetylated histone (2500 cpm/5 μg) and 96 μl of crude histone deacetylase fraction were admixed. […] The reaction was terminated by the addition of 10 μl of concentrated hydrochloric acid, and released [^3H] acetic acid was extracted with 1 ml of ethyl acetate, from which 0.9 ml was added to 5 ml of toluene scintillation solution and the radioactivity was measured.

How did the “histone deacetylase inhibitory activity IC50” value turn out when C/C=C1\NC(=O)[C@@H](CS)NC(=O)[C@@H](C(C)C)NC(=O)C[C@@H](/C=C/CCS)OC(=O)[C@H](C(C)C)NC1=O [FR135313 substance] was run?
Its value is “not more than 1 ng/ml”.
